# Entries after “also recorded” stand apart in the source; their conditions may differ. Where two headings read alike, the source gives them in different places.
# Tests used:
# EV-A71 = assay: CPE inhibition assay (Cell Titer Glo) against EV-A71 in Vero cells; format: cell-based, Enterovirus A71; settings: for anti-viral activity (luminescence above 3SD cutoff): single concentration 50 μM
# EV-A71 Δ2C^116-329 [1] = biological target: T1, EV-A71 Δ2C^116-329 (Human enterovirus 71, UniProt Q66478); assay: biochemical; format: biochemical; settings: for inhibition of the ATPase function of Δ2C^116-329 (absorbance below 3SD cutoff): single concentration 50 μM
# T1 construct: EV-A71 Δ2C (amino acids 116-329) was designed with; made in house; host or cells: E. coli Rosetta 2(DE3) pLysS, pMALc5x vector
# EV-A71 Δ2C^116-329 [2] = settings: previously observed; cited from earlier work
# in vitro [3] = settings: African green monkey
# [4] = biological target: T2, EV-A71 Δ2C^116-329 (2C ATPase) (Enterovirus A71, UniProt B9VUU3); assay: 2C ATPase inhibition assay (colorimetric malachite green, dose response); format: biochemical
# T2 construct: Ni-NTA and SEC purified
# [5] = test system: EV-A71-TN (VP1-T237N mutant); format: cell-based, Enterovirus A71; settings: 500 μM compound; Vero cells
# wild type EV-A71 (WT) = format: cell-based; settings: 500 μM compound; Vero cells
# human echovirus-30 = assay: NIAID cytopathic effect assay, human echovirus-30; format: cell-based
# [6] = test system: Eastern equine encephalitis virus; format: cell-based
# [7] = NIAID Antiviral Program for Pandemics primary assay (CPE/Tox), EV-68; settings: CC50 µM, primary assay, EV-68
# EV-68 [8] = assay: as above; settings: Enterovirus D
# CV-B3 = assay: NIAID cytopathic effect assay, CV-B3; format: cell-based, Coxsackievirus B3
# [9] = test system: Middle East Respiratory Syndrome; format: cell-based
# EV-71 [10] = assay: microbe, parasite or virus in culture; settings: Enterovirus A, EV71, read-out: EC90 μM
# West Nile virus = assay: NIAID cytopathic effect assay, West Nile virus; format: cell-based
# [11] = NIAID secondary assay, Neutral Red (CPE/Tox), EV-68
# EV-68 [12] = assay: as above; settings: Enterovirus D, EV68, read-out: EC50 μM
# [13] = NIAID Antiviral Program for Pandemics primary assay (CPE/Tox), EV-71; settings: CC50 µM, primary assay, EV-71
# EV-71 [14] = assay: as above; settings: Enterovirus A
# [15] = test system: poliovirus Mahoney strain; assay: microbe, parasite or virus in culture; format: cell-based; settings: Enterovirus C, Vero, read-out: IC50 for virus induced CPE inhibition
# [16] = NIAID secondary assay, Neutral Red (CPE/Tox), EV-71
# EV-71 [17] = assay: as above; settings: Enterovirus A, EV71, read-out: EC50 μM
# PV-1 = format: cell-based, Poliovirus
# [18] = NIAID secondary assay, Virus Yield Reduction, EV-68
# EV-68 [19] = assay: as above; settings: Enterovirus D, EV68, read-out: EC90 μM
# EV-D68 = assay: CPE inhibition assay against EV-D68 in Vero cells; format: cell-based; settings: Enterovirus D, EVD68, read-out: IC50 for virus induced CPE inhibition
# EV-A71 Δ2C^116-329 [20] = biological target: T1, EV-A71 Δ2C^116-329; format: binding; settings: 0.02 μM to 200 μM compound
# [21] = test system: coxsackievirus-B3 (CV-B3); assay: CPE inhibition assay against CV-B3 in HeLa cells; format: cell-based
# EV-A71 replicon = EV-A71 replicon assay in HeLa cells; settings: 1, 5 or 25 μM, 14 hours post transfection
# influenza A (H1N1) = assay: NIAID cytopathic effect assay, influenza A (H1N1); format: cell-based
# human echovirus-11 = assay: NIAID cytopathic effect assay, human echovirus-11; format: cell-based
# in vitro [22] = assay: in vitro
# [23] = Enterovirus A, EVA71, EV-A71, Vero cells, read-out: IC50 for inhibition of virus-induced CPE
# [24] = Enterovirus A, EVA71, Table 7, EV-A71, Vero cells, read-out: IC50
# T1 sequence (Q66478 1227-1440, stated change not applied): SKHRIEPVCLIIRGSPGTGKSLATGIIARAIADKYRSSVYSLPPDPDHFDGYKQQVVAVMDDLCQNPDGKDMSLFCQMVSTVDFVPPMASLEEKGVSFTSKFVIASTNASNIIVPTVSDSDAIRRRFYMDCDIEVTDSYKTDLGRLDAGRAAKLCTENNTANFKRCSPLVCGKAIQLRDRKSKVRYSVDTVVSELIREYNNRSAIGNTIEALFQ
# T2 sequence (B9VUU3 1227-1440, stated change not applied): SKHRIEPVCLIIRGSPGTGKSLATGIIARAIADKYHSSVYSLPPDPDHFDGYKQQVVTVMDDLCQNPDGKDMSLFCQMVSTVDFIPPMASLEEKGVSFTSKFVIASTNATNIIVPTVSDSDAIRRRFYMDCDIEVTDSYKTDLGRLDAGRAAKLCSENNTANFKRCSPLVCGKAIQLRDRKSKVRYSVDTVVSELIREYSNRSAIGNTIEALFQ
smiles,measurement,setting,value
"Cl.N=C(N)N [GnHCl, Guanidinium hydrochloride, reference compound]",IC50,EV-A71; read-out: IC50 for inhibition of EV-A71,140 µM
same,IC50,EV-A71 Δ2C^116-329 [1]; read-out: IC50 for ATPase inhibition,83600 µM
same,IC50 for inhibition of the ATPase activity of 2C,EV-A71 Δ2C^116-329 [2],millimolar range
"O=C(Cn1nc2c(Oc3cccc(F)c3)nccn2c1=O)Nc1cccc(Cl)c1 [Compound 167, N-(3-chlorophenyl)-2-[8-(3-fluorophenoxy)-3-oxo-2H,3H-[1,2,4]triazolo[4,3-a]pyrazin-2-yl]acetamide]",IC50,EV-A71; [23],59.4 µM
same,IC50,EV-A71; [24],59.4 µM
same,Selectivity Index,"EV-A71; Table 7, CC50/IC50",>16.8
same,selectivity index,EV-A71; from IC50 and CC50,> 16.8
same,anti-viral activity (luminescence above 3SD cutoff),"EV-A71; EV-A71, Vero cells",inhibited EV-A71
same,inhibition of the ATPase function of Δ2C^116-329 (absorbance below 3SD cutoff),EV-A71 Δ2C^116-329 [1],inhibited 2C ATPase; also recorded: inhibited the ATPase function
same,CC50 at 3 days,in vitro [3]; CC50,> 400 µM
same,CC50 at 3 days,in vitro [3]; CC50 (μM),> 1000 µM
same,IC50,[4],61.2 µM
same,decrease in viral titer vs DMSO,[5],~5 fold
same,decrease in viral titer vs DMSO,wild type EV-A71 (WT),~100 fold
"Cc1ccc2[nH]c(-c3ccc(NC(=O)c4cccs4)cc3)nc2c1 [Compound 36, N-[4-(5-methyl-1H-benzimidazol-2-yl)phenyl]-2-thiophenecarboxamide]",activity against human echovirus-30,human echovirus-30,no activity
same,activity against Eastern equine encephalitis virus,[6],no activity
same,CC50,[7]; Neutral Red (CPE/Tox),9 µM
same,CC50,[7]; Visual (CPE/Tox),24 µM
same,EC50,"EV-68 [8]; EV68, read-out: EC50 μM, primary assay, EV-68, Neutral Red (CPE/Tox)",0.39 µM
same,EC50,"EV-68 [8]; EV68, read-out: EC50 μM, primary assay, EV-68, Visual (CPE/Tox)",0.52 µM
same,EC50,"EV-68 [8]; EV68|EVD68, read-out: EC50 against EV-D68, text, primary cytopathic effect assay",0.39 to 0.52 µM
same,activity against CV-B3,CV-B3,no activity
same,activity against Middle East Respiratory Syndrome,[9],no activity
same,EC90,EV-71 [10],3.2 µM
same,activity against West Nile virus,West Nile virus,no activity
same,Selectivity Index,EV-A71,29.59
same,selectivity index,EV-A71,29.6
same,IC50,EV-A71; [23],2.66 µM
same,IC50,"EV-A71; Enterovirus A, EVA71, Table 8, virus-induced CPE, EV-A71, Vero cells, read-out: IC50",2.66 µM
same,CC50,[11],3.5 µM
same,EC50,EV-68 [12],0.52 µM
same,IC50,EV-A71 Δ2C^116-329 [1],23.4 µM
same,dose dependence of inhibition of the ATPase function of Δ2C^116-329,EV-A71 Δ2C^116-329 [1]; dose response,clear dose-dependent response
same,CC50,[13]; Neutral Red (CPE/Tox),42 µM
same,CC50,[13]; Visual (CPE/Tox),32 µM
same,EC50,"EV-71 [14]; EV71, read-out: EC50 μM, primary assay, EV-71, Neutral Red (CPE/Tox)",4.7 µM
same,EC50,"EV-71 [14]; EV71, read-out: EC50 μM, primary assay, EV-71, Visual (CPE/Tox)",> 32 µM
same,EC50,"EV-71 [14]; EV71|EVA71, read-out: EC50 against EV-A71, text, primary cytopathic effect assay",4.2 µM
same,IC50,[15],1.7 µM
same,CC50,[16],25 µM
same,EC50,EV-71 [17],1.7 µM
same,activity against PV-1,PV-1,no activity
same,CC50 at 3 days,in vitro [3]; CC50,78.7 µM
same,CC50 at 3 days,in vitro [3]; CC50 (μM),78.7 µM
same,CC50,[18],9.4 µM
same,EC90,EV-68 [19],0.59 µM
same,IC50,EV-D68,0.85 µM
same,shift in melting temperature (Tm) of Δ2C^116-329,EV-A71 Δ2C^116-329 [20],dose-dependent increase in the Tm
same,inhibition of CV-B3,[21],did not inhibit; also recorded: not active
same,number of reporter positive cells compared with the untreated control,EV-A71 replicon,no statistically significant difference
same,activity against influenza A (H1N1),influenza A (H1N1),no activity
same,activity against human echovirus-11,human echovirus-11,no activity
same,CC50,in vitro [22],27 µM
"Nc1nc(N)nc(COC(=O)CCc2c(-c3ccc(F)cc3)[nH]c3ccc(F)cc23)n1 [Compound 111, (4,6-diamino-1,3,5-triazin-2-yl)methyl 3-[5-fluoro-2-(4-fluorophenyl)-1H-indol-3-yl]propanoate]",IC50,EV-A71; [23],44.7 µM
same,IC50,EV-A71; [24],44.7 µM
same,Selectivity Index,"EV-A71; Table 7, CC50/IC50",9.44
same,selectivity index,EV-A71; from IC50 and CC50,9.44
same,anti-viral activity (luminescence above 3SD cutoff),"EV-A71; EV-A71, Vero cells",inhibited EV-A71
same,inhibition of the ATPase function of Δ2C^116-329 (absorbance below 3SD cutoff),EV-A71 Δ2C^116-329 [1],inhibited 2C ATPase; also recorded: inhibited the ATPase function
same,CC50 at 3 days,in vitro [3]; CC50,422 µM
same,CC50 at 3 days,in vitro [3]; CC50 (μM),422 µM
same,IC50,[4],7.5 µM

# Reference: patent US20240131007A1, “METHODS AND COMPOSITIONS FOR PICORNAVIRUS ANTI-VIRAL AGENTS” (University of Connecticut, priority 2022, published 2024)
